# “And” between values parts separate entries of the source, which are not always exact repeats. Equal values may be shown once. Read-outs that look alike come from different tables or passages of the source.
# Columns and labels:
# [1] = system: human colon carcinoma cells HCT-116; details: cited from earlier work
# [2] = system: multi-drug resistant phenotype human colon carcinoma cells HCT-116/VM; details: cited from earlier work
# MCF7 (mammary carcinoma) = assay: tumor cell growth inhibition (SRB, 72 h drug exposure); format: cell-based, human
# Protocol: (§1) Lower numbers indicate higher potency. […] The data represent the mean values of at least three separate experiments. Lower numbers indicate greater activity.
# (§2) Assessment of cell growth inhibition was determined according to the methods of Skehan et al., J. Nat. Cancer Inst. […] Briefly, cells were plated between 400 and 1200 cells/well in 96 well plates and incubated at 37° C. for 15-18 h prior to drug addition to allow attachment of cells. […] After a 72 h incubation, […] of ice-cold 50% TCA was added to each well and incubated for 1 h at 4° C. Plates were then washed 5 times with tap water to remove TCA, low-molecular-weight metabolites and serum proteins. Sulforhodamine B (SRB) (0.4%, […]) was added to each well. Following a 5 min incubation at room temperature, plates were rinsed 5 times with 0.1% acetic acid and air dried. […] Optical density was measured at 570 nm.
# HT-29 (colon carcinoma) = assay: as above; format: cell-based, human; details: 72 h drug exposure
# Protocol: as §1, §2
# [3] = system: MCF7-R (mammary carcinoma cells 180-fold resistant to adriamycin); assay: as above; format: cell-based, human
# Protocol: as §1, §2
# [4] = system: A549 (non-small cell lung carcinoma); assay: as above; format: cell-based, human; details: 72 h drug exposure; read-out: A549 (NSCLC) IC50
# Protocol: as §1, §2
# A121 (ovarian carcinoma) = assay: as above; format: cell-based, human; details: 72 h drug exposure
# Protocol: as §1, §2
# B16 melanoma = assay: intravenous administration to mice bearing B16 melanoma; format: in vivo, B6D2F1 female mice; set-up: key to Responses (activity rating): A = active; HA = highly active
# Protocol: (§3) The efficacy of the test compounds on solid tumors in vivo was determined experimentally according to the following general experimental protocol:
# (§4) The mice subjected to the experiment were subcutaneously grafted bilaterally with 30 to 60 mg of a tumor fragment on day zero. Mice bearing tumors were mixed before being subjected to the various treatments and controls. In the case of treatment of advanced tumors, tumors were allowed to develop to the desired size, and mice having insufficiently developed tumors were eliminated. The selected mice were distributed at random to undergo the treatments and controls. Mice not bearing tumors may also be subjected to the same treatments as the tumor-bearing mice in order to be able to dissociate the toxic effect from the specific effect on the tumor. Chemotherapy generally began from 3 to 22 days after grafting, depending on the type of tumor, and the mice were observed every day. The different mice groups were weighed 3 or 4 times a week until the maximum weight loss was attained (nadir), and the groups were then weighed at least once a week until the end of the trial.
# (§5) The tumors were measured 2 or 3 times a week until the tumor reached approximately 2 grams, or until the animal died, if this occurred before the tumor reached 2 grams. The mice were autopsied when sacrificed.
# (§6) The antitumor activity was determined in accordance with different parameters recorded such as dose (mg/kg), mode of administration, time of administration, cytotoxicity, toxicity and log10 cell kill.
# SB-T-1213, SB-T-121303, SB-T-121304 and SB-T-1250 were evaluated in B6D2F1 female mice bearing B16 melanoma. The general experimental protocol was as described above. The compounds evaluated were administered intravenously (iv) on an intermittent schedule on days 3, 5, and 7 post tumor implantation. With the exception of SB-T-1250, solutions of the compounds for administration were prepared in 5% ethanol, 5% polysorbate 80, and 90% glucose 5% water.
# A2780 = assay: growth inhibition by cell counts, 72 h; format: cell-based, human; details: 72 h; read-out: A2780 IC50
# Protocol: (§7) Cells were plated in 6-well flat bottom plates (Falcon, Lincoln Park, N.J.) at a concentration of 10^5 cells ml in complete medium. After 24 h, the medium was replaced with media containing the test substances. Control cells were treated with vehicle alone. Cells were then washed twice and cultures maintained up to 72 h in complete medium (without removing the test substances). At this time point quadruplicate counts of triplicate cultures were performed. To calculate the growth inhibition effect, three independent experiments were performed for each test substance/cell line. The IC50 values were then calculated by fitting the concentration-effect curve data obtained in the three experiments with the sigmoid-Emax model using nonlinear regression, weighted by the reciprocal of the square of the predicted effect according to the method of Motulsky, H. J. and Ransnas, L. A., FASEB J. 1:365-74 (1987).
# NCI-H23 = assay: growth inhibition by cell counts, 72 h; format: cell-based, human; details: 72 h; read-out: NCI-H23 IC50
# Protocol: as §7
# MCF-7 ADRr = assay: growth inhibition by cell counts, 72 h; format: cell-based, human; details: 72 h; read-out: MCF-7 ADRr IC50
# Protocol: as §7
# MCF-7 wt = assay: growth inhibition by cell counts, 72 h; format: cell-based, human; details: 72 h; read-out: MCF-7 wt IC50
# Protocol: as §7
# DU-145 = assay: growth inhibition by cell counts, 72 h; format: cell-based, human; details: 72 h; read-out: DU-145 IC50
# Protocol: as §7
# WiDr = assay: growth inhibition by cell counts, 72 h; format: cell-based, human; details: read-out: WiDr IC50
# Protocol: as §7
# PC-3 = assay: growth inhibition by cell counts, 72 h; format: cell-based, human; details: 72 h
# Protocol: as §7
# [5] = system: mammary adenocarcinoma MA17/A; assay: oral administration to MA17/A tumor-bearing mice; format: in vivo, C3H/HeN female mice; set-up: key to Responses (activity rating): A = active; HA = highly active
# Protocol: as §3, §4, §5, §6
# SB-T-1213 was evaluated in C3H/HeN female mice bearing mammary adenocarcinoma MA17/A with an intermittent schedule of oral administrations. The compound for administration was formulated in 10% ethanol, 10% polysorbate 80, and 80% glucose/5% water.
# SB-T-1213 was administered 3 times a day on 3 and 7 days post tumor implantation. The two highest dosages of 36.4 and 22.6 mg/kg/adm. were toxic, producing 5/5 drug related deaths (DD) and 20% body weight loss, respectively. However, the highest nontoxic dose of 14 mg/kg/adm. (total dose of 84 mg/kg), produced 8.4% body weight loss at nadir, 4 days post therapy. […] One of five mice was a tumor-free survivor (TFS) on day 94 post tumor implantation with this dosage. Two lower dosages of 8.7 and 5.4 mg/kg/adm. also maintained activity, having a log10 cell kill of greater than 3 and of 2.5, respectively.
# [6] = system: docetaxel-resistant melanoma, B16/TXT; assay: intravenous administration to B16/TXT melanoma-bearing mice; format: in vivo, B6D2F1 female mice; set-up: key to Responses (activity rating): A = active; HA = highly active; details: for T/C / log10 cell kill: days 3, 5, 7
# Protocol: as §3, §4, §5, §6
# SB-T-1213, SB-T-121303, SB-T-121304 and SB-T-1250 were evaluated in B6D2F1 female mice bearing the docetaxel-resistant melanoma, B16/TXT. The general experimental protocol was as described above. The compounds evaluated were administered intravenously on an intermittent schedule on days 3, 5, and 7 post tumor implantation.
structure (smiles),measurement,setting,value
"CC(=O)OC1C(=O)C2(C)C(O)CC3OCC3(OC(C)=O)C2C(OC(=O)c2ccccc2)C2(O)CC(OC(=O)C(O)C(C=C(C)C)NC(=O)c3ccccc3)C(C)=C1C2(C)C (centres unmarked) [RAH-1, 3′-dephenyl-3′-isobutenylpaclitaxel]",times better activity than docetaxel,[1],7 times
same,times better activity than paclitaxel,[1],4 times
same,times better activity than docetaxel,[2],9 times
same,times better activity than paclitaxel,[2],about 20 times
same,IC50,"MCF7 (mammary carcinoma); 72 h drug exposure, Table 1, read-out: MCF7 (breast) IC50",0.54 nM
same,IC50,HT-29 (colon carcinoma),0.96 nM
same,IC50,"[3]; 72 h drug exposure, Table 1",113 nM
same,activity against MCF7-R in words,[3]; one order of magnitude weaker than Taxoid Ia,only marginal activity
same,IC50,[4],0.45 nM
same,IC50,A121 (ovarian carcinoma),1.4 nM
"CCC(=O)OC1C(=O)C2(C)C(O)CC3OCC3(OC(C)=O)C2C(OC(=O)c2ccccc2)C2(O)CC(OC(=O)C(O)C(C=C(C)C)NC(=O)OC(C)(C)C)C(C)=C1C2(C)C (centres unmarked) [Taxoid Ib, 3′-Dephenyl-3′-(2-methyl-1-propenyl)-10-propanoyldocetaxel]",Responses (activity rating),B16 melanoma; 4.5 mg/kg/adm.,A
same,log10 cell kill,"B16 melanoma; 4.5 mg/kg/adm., days 3, 5, 7",1.6
same,Responses (activity rating),B16 melanoma; 7.3 mg/kg/adm.,A
same,log10 cell kill,"B16 melanoma; 7.3 mg/kg/adm., days 3, 5, 7",1.8
same,Responses (activity rating),B16 melanoma; 11.8 mg/kg/adm.,HA
same,T/C,"B16 melanoma; 11.8 mg/kg/adm., days 3, 5, 7",0%
same,log10 cell kill,"B16 melanoma; 11.8 mg/kg/adm., days 3, 5, 7",3
same,% body weight loss at nadir,"B16 melanoma; 11.8 mg/kg/adm., days 3, 5, 7, listed as SB-T-1213, 11.8 mg/kg",15.3% and 15.3 (3) %
same,drug related deaths (DD),"B16 melanoma; 19 mg/kg/adm., days 3, 5, 7",⅕
same,highest nontoxic dose,"B16 melanoma; days 3, 5, 7",11.8 mg/kg/adm.
same,IC50,A2780,1.77 nM
same,IC50,NCI-H23,0.7 nM
same,IC50,MCF-7 ADRr,8 nM
same,IC50,MCF-7 wt,0.9 nM
same,IC50,DU-145,0.3 nM
same,IC50,WiDr,0.4 nM
same,IC50,PC-3,0.3 nM
same,Responses (activity rating),[5]; 8.7 mg/kg/adm.,A
same,tumor-free survivors (TFS),[5]; 8.7 mg/kg/adm.,1/5
same,Responses (activity rating),[5]; 14.0 mg/kg/adm.,HA
same,tumor-free survivors (TFS),"[5]; 14 mg/kg/adm., day 94 post tumor implantation, listed as SB-T-1213, 14 mg/kg",One of five and 1/5
same,T/C,"[5]; 14.0 mg/kg/adm., days 3, 7",0%
same,% body weight loss at nadir,"[5]; 14 mg/kg/adm., days 3, 7, total 84 mg/kg, listed as SB-T-1213",8.4% and 8.4 (4) %
same,body weight loss,"[5]; 22.6 mg/kg/adm., 3 times a day on days 3 and 7",20%
same,drug related deaths (DD),"[5]; 36.4 mg/kg/adm., 3 times a day on days 3 and 7",5/5
same,highest nontoxic dose,[5]; 3 times a day on days 3 and 7,14 mg/kg/adm.
same,IC50,"MCF7 (mammary carcinoma); Table 2, read-out: MCF7 IC50",0.21 nM
same,IC50,[3]; Table 2,2.16 nM
same,T/C,[6]; 4.5 mg/kg/adm.,74%
same,Responses (activity rating),[6]; 7.3 mg/kg/adm.,A
same,log10 cell kill,[6]; 7.3 mg/kg/adm.,1
same,Responses (activity rating),[6]; 11.8 mg/kg/adm.,A
same,log10 cell kill,[6]; 11.8 mg/kg/adm.,1
same,Responses (activity rating),[6]; 19 mg/kg/adm.,A
same,T/C,[6]; 19 mg/kg/adm.,11%
same,log10 cell kill,[6]; 19 mg/kg/adm.,1.6
same,% body weight loss at nadir,"[6]; 19 mg/kg/adm., days 3, 5, 7, listed as SB-T-1213, 19 mg/kg",17.1% and 17.1 (4) %

# Reference: patent US6500858B2, “Taxoid anti-tumor agents and pharmaceutical compositions thereof” (The Research Foundation of the state University of New York, priority 1994, dated 2002)
